This is an account of results in US9345247B2, “Azaindole carboxylic acid amides and azaindole thiocarboxylic acid amides for use as insecticides and acaricides” (BAYER CROPSCIENCE AG, priority 2012, dated 2016).

In data set [1] the test system is caterpillars of the armyworm (Spodoptera frugiperda). Put plainly: Spodoptera frugiperda spray test (SPODFR). In kind it is in vivo. As to conditions: spray, after 7 days. Here is the method: Spodoptera frugiperda—Spray Test (SPODFR)
(§1) To produce a suitable active compound formulation, 1 part by weight of active compound is mixed with the stated amounts of solvent and emulsifier, and the concentrate is diluted with emulsifier-containing water to the desired concentration.
Leaf discs of maize (Zea mays) are sprayed with an active compound formulation of the desired concentration and, after drying, populated with caterpillars of the armyworm (Spodoptera frugiperda).
After 7 days, the efficacy in % is determined. 100% means that all the caterpillars have been killed; 0% means that no caterpillars have been killed.
(§2) To produce a suitable preparation of active compound, 1 part by weight of active compound is mixed with the stated amounts of solvent and emulsifier, and the concentrate is diluted with emulsifier-containing water to the desired concentration.
Leaf discs of maize (Zea mays) are sprayed with an active compound preparation of the desired concentration and, after drying, populated with caterpillars of the armyworm (Spodoptera frugiperda).
After the stated period of time, the effect in % is determined. 100% means that all the caterpillars have been killed; 0% means that no caterpillars have been killed.

Data set [2] concerns larvae of the mustard beetle (Phaedon cochleariae). Put plainly: Phaedon cochleariae spray test (PHAECO). In kind it is in vivo. As to conditions: for efficacy / pest or weed control at 100 g/ha: spray, after 7 days; for pest or weed control at 100 g/ha: read-out: efficacy. How it is done:
Phaedon cochleariae—Spray Test (PHAECO)
as §2
Discs of Chinese cabbage leaves (Brassica pekinensis) are sprayed with an active compound formulation of the desired concentration and, after drying, populated with larvae of the mustard beetle (Phaedon cochleariae).
After 7 days, the efficacy in % is determined. 100% means that all the beetle larvae have been killed; 0% means that no beetle larvae have been killed.
After the stated period of time, the effect in % is determined 100% means that all the beetle larvae have been killed; 0% means that no beetle larvae have been killed.

The nature of data set [3]: log P by HPLC on reversed-phase column (C18), EEC directive 79/831 Annex V.A8. In kind it is physicochemical. As to conditions: HPLC, acidic range pH 2.7, 43° C.; for chromatographic logP: reversed-phase HPLC column (C18), read-out: log p. Here is the method: a) The determination of the W by LC-MS in the acidic range is effected at pH 2.7, acetonitrile (contains 0.1% formic acid) and water as eluents; linear gradient from 10% acetonitrile to 95% acetonitrile, instrument: Agilent 1100 LC-System, Agilent MSD System, HTS PAL. The log P values reported in the tables and Preparation Examples above were determined in accordance with EEC directive 79/831 Annex V.A8 by HPLC (High Performance Liquid Chromatography) using a reversed-phase column (C18). Temperature 43° C. The calibration is effected with unbranched alkan-2-ones (having 3 to 16 carbon atoms), for which the log P values are known.

Data set [4] relates to greenhouse red spider mite (Tetranychus urticae). Put plainly: Tetranychus urticae spray test, OP-resistant (TETRUR). In kind it is in vivo. As to conditions: for efficacy: 100 g/ha, spray, after 6 days. How it is done:
as §1
Discs of bean leaves (Phaseolus vulgaris) infested by all stages of the greenhouse red spider mite (Tetranychus urticae) are sprayed with an active compound formulation of the desired concentration.
After 6 days, the efficacy in % is determined 100% means that all the spider mites have been killed; 0% means that none of the spider mites have been killed. […]

Setting [5] is: Phaedon cochleariae, 168 h, 100 g/ha.

Molecules are shown by their SMILES.

On to `C#CCn1c(C(=O)NC(c2cc(Cl)c(F)c(Cl)c2)C(F)(F)F)cc2cc(C(=O)NC3CC3)c(Cl)nc21` (stereo not shown) [Compound 68], for which the efficacy in data set [1] (100 g/ha) and in data set [2] (100 g/ha) was 100% throughout. In data set [3], the log p is on record as 3.85.
With `CCn1c(C(=O)NC(c2cc(Cl)c(F)c(Cl)c2F)C(F)(F)F)cc2cc(C(=O)NC3CC3)c(C)nc21` (stereo not shown) [Compound 71], the efficacy in data set [1] (100 g/ha) and in data set [2] (100 g/ha) was 100% throughout. The same compound showed a log p in data set [3] of 4.21.
Turning to `CCn1c(C(=O)NC(c2cc(Cl)c(F)c(Cl)c2F)C(F)(F)F)cc2cc(C(=O)NC3(C#N)CC3)c(Cl)nc21` (stereo not shown) [Compound 31], the efficacy in data set [1] (100 g/ha) and in data set [2] (100 g/ha) was 100% each time. Also, in data set [3], the log p is 4.32.
For `CCn1c(C(=O)NC(c2cccc(C(F)(F)F)c2)C(F)(F)F)cc2cc(C(=O)NC3CCC3)c(C)nc21` (stereo not shown) [Compound 5], the efficacy in data set [2] (100 g/ha) was 100%; in data set [4] it was 90%. In data set [3], this compound yielded a log p of 3.89.
`C#CCn1c(C(=O)NC(c2cccc(C(F)(F)F)c2)C(F)(F)F)cc2cc(C(=O)Nc3ccc(Cl)cn3)c(Cl)nc21` (stereo not shown) [Compound 61] gave an efficacy in data set [2] (100 g/ha) of 83%. Also, the log p in data set [3] worked out at 4.49.
For the compound `C#CCn1c(C(=O)NC(c2cc(Cl)c(F)c(Cl)c2F)C(F)(F)F)cc2cc(C(=O)NC3CC3)c(Cl)nc21` (stereo not shown) [Compound 69], the efficacy in data set [1] (100 g/ha) and in data set [2] (100 g/ha) was 100% in each case. Also, the log p in data set [3] is recorded as 4.01.
Take `CCn1c(C(=O)NC(c2cccc(C(F)(F)F)c2)C(F)(F)F)cc2cc(C(=O)NC(C)C)c(C)nc21` (stereo not shown) [Compound 4]: the efficacy in data set [2] (100 g/ha) is recorded as 100%. Further, the log p in data set [3] is 3.74.
As for `C#CCn1c(C(=O)NC(c2cccc(C(F)(F)F)c2)C(F)(F)F)cc2cc(C(=O)NC(C)C)c(Cl)nc21` (stereo not shown) [Compound 24], the efficacy in data set [2] (100 g/ha) and in data set [2] (500 g/ha) was 100% each time. For the same compound, the log p in data set [3] is 3.68.
In data set [4], `CCn1c(C(=O)NC(c2ccc(F)c(Cl)c2)C(F)(F)F)cc2cc(C(=O)NC(C)C)c(Cl)nc21` (stereo not shown) [Compound 17] gave an efficacy of 100%. The same compound showed a log p in data set [3] of 3.88.
As for `CCn1c(C(=O)NC(c2cccc(C(F)(F)F)c2)C(F)(F)F)cc2cc(C(=O)NCC#N)c(Cl)cc21` (stereo not shown) [reference compound], the Emax at 100 g/ha in data set [4] (Tetranychus urticae, 144 h, TETRUR, 100 g of ai/ha, 6 d, read-out: % Efficacy dat) came to 0%.
As to `CCn1c(C(=O)NC(c2cccc(C(F)(F)F)c2)C(F)(F)F)cc2cc(C(=O)NC3CC3)c(C(F)(F)F)nc21` (stereo not shown) [Compound 73], the efficacy in data set [1] (100 g/ha) and in data set [2] (100 g/ha) was 100% throughout. In data set [3], this compound returned a log p of 4.00.
Consider `CCn1c(C(=O)NC(c2ccc(F)c(C(F)(F)F)c2)C(F)(F)F)cc2cc(C(=O)NC(C)C)c(Cl)nc21` (stereo not shown) [Compound 50], for which, in data set [2] (100 g/ha), the efficacy is 100%. This compound yielded a log p in data set [3] of 4.08.
As to `CCn1c(C(=O)NC(c2cccc(C(F)(F)F)c2)C(F)(F)F)cc2cc(C(=O)NC(C)C)c(Cl)nc21` (stereo not shown) [Compound 14], the pest or weed control at 100 g/ha in data set [2] (setting [5]) turned out to be 100%. Besides, in data set [2] (Phaedon cochleariae, 168 h, PHAECO, 20 g of ai/ha, 7 d, read-out: % Efficacy dat), the percent efficacy (larval mortality) at 20 g/ha came to 100%. For the same compound, the chromatographic logP in data set [3] came out at 3.97.
For `CN(C(=O)c1cc2cc(C(=O)NC3(C#N)CC3)c(Cl)nc2n1C)C(c1cccc(C(F)(F)F)c1)C(F)(F)F` (stereo not shown) [Compound 97], the pest or weed control at 100 g/ha in data set [2] (setting [5]) is 100%. For the same compound, in data set [3], the chromatographic logP was 3.59.
`C#CCn1c(C(=O)NC(c2ccc(F)c(C(F)(F)F)c2)C(F)(F)F)cc2cc(C(=O)NC3CC3)c(Cl)nc21` (stereo not shown) [Compound 70]: the efficacy in data set [1] (100 g/ha) and in data set [2] (100 g/ha) was 100% in each case. The log p in data set [3] is 3.55.
`CCn1c(C(=O)NC(c2ccc(F)c(C(F)(F)F)c2)C(F)(F)F)cc2cc(C(=O)NC3CCC3)c(Cl)nc21` (stereo not shown) [Compound 46] returned an efficacy in data set [2] (100 g/ha) of 100%. For the same compound, in data set [3], the log p is 4.20.
Consider `CN(C(=O)c1cc2cc(C(=O)NC3CC3)c(Cl)nc2n1C)C(c1cccc(C(F)(F)F)c1)C(F)(F)F` (stereo not shown) [Compound 96], for which the pest or weed control at 100 g/ha in data set [2] (setting [5]) was 100%. In addition, the chromatographic logP in data set [3] was 3.63.
Turning to `C#CCn1c(C(=O)NC(c2cccc(C(F)(F)F)c2)C(F)(F)F)cc2cc(C(=O)NC3CCC3)c(Cl)nc21` (stereo not shown) [Compound 25], the results for the efficacy in data set [2] (100 g/ha) and in data set [4] were 100% and 90%, respectively. The log p in data set [3] turned out to be 3.79.
As to `CCn1c(C(=O)NC(c2cccc(C(F)(F)F)c2)C(F)(F)F)cc2cc(C(=O)NCc3ccccn3)c(Cl)nc21` (stereo not shown) [Compound 37], the efficacy in data set [2] (100 g/ha) stood at 100%. In addition, the log p in data set [3] stood at 3.18.
On to `CCn1c(C(=O)NC(c2cccc(C(F)(F)F)c2)C(F)(F)F)cc2cc(C(=O)NC3COC3)c(Cl)nc21` (stereo not shown) [Compound 39], for which the efficacy in data set [2] (100 g/ha) was 100%; in data set [4], 90%. Also, in data set [3], the log p is on record as 3.28.
For the compound `CCn1c(C(=O)NC(c2cccc(C(F)(F)F)c2)C(F)(F)F)cc2cc(C(=O)Nc3ccc(Cl)cn3)c(Cl)nc21` (stereo not shown) [Compound 40], the values for the efficacy in data set [2] (100 g/ha) and in data set [2] (500 g/ha) were 83% and 100%, respectively. In data set [3], the log p was 4.88.
Take `CCNC(=O)c1cc2cc(C(=O)NC(c3cccc(C(F)(F)F)c3)C(F)(F)F)n(CC)c2nc1Cl` (stereo not shown) [Compound 52]: in data set [2] (100 g/ha), the efficacy is recorded as 100%. This compound also showed a log p in data set [3] of 3.70.
Turning to `CCn1c(C(=O)NC(c2cccc(C(F)(F)F)c2)C(F)(F)F)cc2cc(C(=O)NCc3ccccn3)c(C)nc21` (stereo not shown) [Compound 7], the efficacy in data set [4] was 90%. The log p in data set [3] was 2.99.
Turning to `CCn1c(C(=O)NC(c2cccc(C(F)(F)F)c2)C(F)(F)F)cc2cc(C(=O)NC3(C#N)CC3)c(C(F)(F)F)nc21` (stereo not shown) [Compound 74], the efficacy in data set [1] (100 g/ha), in data set [1] (500 g/ha), in data set [2] (100 g/ha) and in data set [2] (500 g/ha) was 100% throughout. The log p in data set [3] amounted to 3.93.
`CCn1c(C(=O)NC(c2ccc(F)c(Cl)c2)C(F)(F)F)cc2cc(C(=O)NC3CC3)c(C)nc21` (stereo not shown) [Compound 9]: the efficacy in data set [1] (100 g/ha) and in data set [2] (20 g/ha) was 100% each time. For the same compound, in data set [3], the log p was 3.39.
For the compound `CCn1c(C(=O)NC(c2cc(Cl)c(F)c(Cl)c2)C(F)(F)F)cc2cc(C(=O)NC3CC3)c(C)nc21` (stereo not shown) [Compound 72], the efficacy in data set [1] (100 g/ha) and in data set [2] (100 g/ha) was 100% each time. In data set [3], this compound gave a log p of 4.00.
The compound `CCC(=O)NCc1cc2cc(C(=O)NC(c3cccc(C(F)(F)F)c3)C(F)(F)F)n(CC)c2nc1C` (stereo not shown) [Compound 93] came in with an efficacy in data set [2] (100 g/ha) of 100%. In data set [3], this compound registered a log p of 3.45.
As for `CCn1c(C(=O)NC(c2cc(Cl)c(F)c(Cl)c2F)C(F)(F)F)cc2cc(C(=O)NC3CC3)c(Cl)nc21` (stereo not shown) [Compound 18], the efficacy in data set [2] (100 g/ha) amounted to 100%. The log p in data set [3] worked out at 4.43.
For `CCn1c(C(=O)NC(c2cccc(C(F)(F)F)c2)C(F)(F)F)cc2cc(C(=O)NC(CF)CF)c(C)nc21` (stereo not shown) [Compound 8], in that order: 100% and 3.67.
As to `CCn1c(C(=O)NC(c2cccc(C(F)(F)F)c2)C(F)(F)F)cc2cc(C(=O)NCC3CC3)c(Cl)nc21` (stereo not shown) [Compound 57], the efficacy in data set [2] (100 g/ha) is on record as 100%. This compound also showed a log p in data set [3] of 4.06.
